Results taken from ChEMBL document CHEMBL5528068, “Structure-Activity Relationship Studies and Optimization of 4-Hydroxypyridones as GPR84 Agonists” (J Med Chem, 2024).
≈ marks a conversion by molar mass, not a printed value.

What was measured:
[1] = target: T1, G-protein coupled receptor 84 (Homo sapiens, UniProt Q9NQS5); assay: Agonist activity at GPR84 (unknown origin) expressed in HTLA cells assessed as beta-arrestin recruitment incubated for 1 day by PRESTO-Tango assay
[2] = Dissociation constant, pKa of compound by UV spectrophotometric analysis
[3] = target: T1, G-protein coupled receptor 84; assay: Agonist activity at GPR84 (unknown origin) expressed in Flp-In-T-REx-293 cells transfected with GalphaI incubated for 1 hr by Topcount scintillation counting method
[4] = target: T1, G-protein coupled receptor 84; assay: Agonist activity at GPR84 (unknown origin) expressed in doxycycline induced Flp-In-T-REx-293 cells transfected with GalphaI preincubated for 15 mins in presence of IBMX followed by forskolin stimulation for 45 mins by time-resolved fluorescence assay
[5] = target: T1, G-protein coupled receptor 84; assay: Agonist activity at GPR84 (unknown origin) expressed in HEK293T cells expressing beta-arrestin 2-nanoluciferase incubated for 5 mins by beta-arrestin recruitment based BRET assay
[6] = target: T1, G-protein coupled receptor 84; assay: Displacement of [3H]140 from GPR84 (unknown origin) expressed in Flp-In-T-REx-293 cells transfected with GalphaI incubated for 1 hr by liquid scintillation spectrometry analysis
[7] = Solubility in PBS at pH 7.4 incubated for 24 hrs by HPLC analysis

T1 sequence (Q9NQS5 whole entry): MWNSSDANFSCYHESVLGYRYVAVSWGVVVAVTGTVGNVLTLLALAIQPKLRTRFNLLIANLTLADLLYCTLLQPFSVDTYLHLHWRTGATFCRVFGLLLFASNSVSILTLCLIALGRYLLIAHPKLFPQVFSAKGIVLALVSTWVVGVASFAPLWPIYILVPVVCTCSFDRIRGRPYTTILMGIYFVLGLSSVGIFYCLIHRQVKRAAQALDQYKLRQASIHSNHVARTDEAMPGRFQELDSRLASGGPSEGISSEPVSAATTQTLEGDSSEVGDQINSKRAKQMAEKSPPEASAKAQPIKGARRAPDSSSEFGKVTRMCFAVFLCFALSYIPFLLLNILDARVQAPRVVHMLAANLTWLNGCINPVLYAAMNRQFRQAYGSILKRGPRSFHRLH

Compound	EC50 [1] [nM]	EC50 [4] [nM]	further results
O=c1cc(O)cc(CCc2ccc(OC(F)(F)F)cc2)[nH]1	11	–	–
CCCCc1ccc(-c2cc(O)cc(O)n2)cc1	25.7	18.2	pKa [2]: 8.04; EC50 [3]: 63.1 nM; EC50 [5]: 1620 nM
CCCCCCCC#Cc1cc(O)cc(=O)[nH]1	5.75	14.5	EC50 [3]: 24 nM; EC50 [5]: 550 nM
O=c1cc(O)cc(-c2ccc(Oc3cncnc3)nc2)[nH]1	102	–	–
Cc1ccc(CCc2cc(O)cc(=O)[nH]2)cc1	13.8	–	–
O=c1cc(O)cc(CCCOc2ccccc2)[nH]1	4.17	–	–
CCCCCCCCNc1cc(O)cc(=O)[nH]1	3.31	–	–
CCCC(=O)NCCCCc1cc(O)cc(=O)[nH]1	23400	–	–
O=c1cc(O)cc(-c2ccc(Oc3ccccc3)nc2)[nH]1	1.05	15.8	EC50 [5]: 263 nM; Ki [6]: 13.8 nM
CCCc1ccc(COc2cc(O)cc(=O)[nH]2)cc1	3.24	–	–
O=c1cc(O)cc(CCc2ccc3c(c2)Cc2ccccc2-3)[nH]1	5010	1660	EC50 [3]: 525 nM
CCCCCCCOc1cc(O)cc(=O)[nH]1	1.32	–	–
O=c1cc(O)cc(CCc2ccccc2)[nH]1	–	–	pKa [2]: 6.6
CCCCCCCCCc1cc(O)cc(O)n1	–	–	solubility at 24 h [7]: 10 µM (≈ 2.37 µg/mL)
Cc1nnc(-c2ccc(-c3cc(O)cc(=O)[nH]3)cc2)o1	11700	–	–
CCCc1ccc(CCc2cc(O)cc(=O)[nH]2)cc1	0.302	0.331	EC50 [3]: 1.2 nM; EC50 [5]: 214 nM; Ki [6]: 13.5 nM
CCCCCCCCCCc1cc(O)cc(=O)[nH]1	0.24	–	–

Now from value to compound, other results behind:

EC50 [1] [nM]	EC50 [4] [nM]	Compound	further results
3240	–	O=C1c2ccccc2C(=O)N1CCCCc1cc(O)cc(=O)[nH]1	–
12.6	19.5	CCCCCc1ccc(-c2cc(O)cc(=O)[nH]2)cc1	EC50 [3]: 26.3 nM; EC50 [5]: 2630 nM
4.47	–	CCc1ccc(CCc2cc(O)cc(=O)[nH]2)cc1	–
0.912	1.26	O=c1cc(O)cc(-c2ccc(Oc3ccccc3)cc2)[nH]1	EC50 [3]: 4.27 nM; EC50 [5]: 209 nM; Ki [6]: 14.8 nM
44.7	15.8	CCOc1ccc(CCc2cc(O)cc(=O)[nH]2)cc1	EC50 [3]: 33.1 nM; EC50 [5]: 7240 nM
389	–	Cc1cccc(CCc2cc(O)cc(=O)[nH]2)c1	–
0.0468	–	CCCCCCCc1cc(O)cc(O)n1	pKa [2]: 6.68
0.427	–	CCCCCCCCCCCc1cc(O)cc(=O)[nH]1	–
0.0275	–	CCCCCCCCc1cc(O)cc(O)n1	–
12.6	6.76	CC(C)Cc1ccc(CCc2cc(O)cc(=O)[nH]2)cc1	EC50 [3]: 12 nM; EC50 [5]: 912 nM
2.95	–	CC(C)(C)c1ccc(CCc2cc(O)cc(=O)[nH]2)cc1	–
4270	–	O=c1cc(O)cc(CCc2cccc(-c3ccccc3)c2)[nH]1	–
